From US8084457B2, “Pharmaceutically active 4,6-disubstituted aminopyrimidine derivatives as modulators of protein kinases” (Lead Discovery Center GmbH, priority 2003, dated 2011)

Key:
CDK2/CyclinA = biological target: T1, CDK2/CyclinA (Homo sapiens, UniProt P24941); test: Kinase assay determining CDK2/CyclinA activity; format: biochemical
T1 construct: purchased Proqinase
Protocol: Kinase Assays Determining CDK2/CyclinA and CDK5/p35 Activity:
Kinase assays were performed as described by the manufacturers recommendations (Proqinase for CDK2/CyclinA and Upsate for CDK5/p35).

PM1 cells = test: Growth assay using Alamar Blue; format: cell-based
Protocol: Growth Assay Using Alamar Blue™:
PM1 cells were seeded in 12-well plates at a density of 1.5×10^5 per well with RPMI 1640 containing 10% FCS (fetal calf serum), 1% L-Glutamine and 1% Na-Pyruvate (Sigma). Cells were incubated with compound for 2-3 days (37° C., 6% CO2) followed by subsequent splitting and renewing of compound-containing medium. At each of these time points an aliquot of cells served as data point for relative growth (given in % of the DMSO control [=100%]). The cell number was determined by addition of 10 μL Alamar Blue™ (Biozol) to 100 μL cell aliquots following the manufacturer's instructions.

[1] = test system: CDK9-dependent phosphorylation of RNA-polymerase II; test: Determination of RNA polymerase II C-terminal domain phosphorylation (western blot, PM1 cells); format: cell-based
Protocol: Determination of RNA Polymerase II C-terminal Domain Phosphorylation: The phosphorylation status of RNA polymerase II C-terminal domain was determined by western blot techniques. PM1 cells were seeded in 6-well plates at a density of 5×10^5 per well. After over night incubation cells were treated with compound as indicated in the respective experiments. Cells were pelleted and lysed with 300 μL 3× Laemmli buffer followed by 30 min denaturing at 65° C. After separation of equal lysate volumes by SDS-PAGE the proteins were transferred to nitrocellulose membranes (Schleicher&Schuell) and probed with anti-[…] (H5), anti-[…] (H14) or RNA Poll II-antibodies purchased from Eurogentec and Santa Cruz, respectively. The amount of reactive protein was visualized by ECL detection methods (Amersham). In order to see, if the compounds according to the general formula (I) do have the intrinsic capacity to penetrate cells and act against cellular target proteins, especially CDK9, the effect of Compound 30 on CDK9-dependent phosphorylation of RNA-polymerase II was investigated.

Abl = Abl (Homo sapiens, UniProt P00519); test: General kinase assay, selectivity panel: Abl; format: biochemical; details: 10 μM of compound, in comparison to DMSO (0% inhibition)
Method in brief: (§1)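 [γ-33P]ATP incorporation, 1 h RT, EDTA stop; MAPH filter capture, 0.75% H3PO4 washes, scintillation count. Compound tested at 10 μM; % inhibition vs DMSO (0%).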

EGFR = EGFR (Homo sapiens, UniProt P00533); test: General kinase assay, selectivity panel: EGFR; format: biochemical; details: 10 μM of compound, in comparison to DMSO (0% inhibition)
Method in brief: as §1

p56 Lck = p56 Lck (Homo sapiens, UniProt P06239); test: General kinase assay, selectivity panel: p56 Lck; format: biochemical; details: 10 μM of compound, in comparison to DMSO (0% inhibition)
Method in brief: as §1

c-Src = c-Src (Homo sapiens, UniProt P12931); test: General kinase assay, selectivity panel: c-Src; format: biochemical; details: 10 μM of compound, in comparison to DMSO (0% inhibition)
Protocol: (§2) The inhibitory effect of compounds according to the present invention on the activity of protein kinases, depicted in Table 1, can be measured according to the following protocol:
(§3) Pipettinq Sequence: • 1) Add 10 μl 4 fold concentrated Substrate+4 fold concentrated ATP in 3 fold concentrated Reaction Buffer to each well of Assay Plate • 2) Add 10 μl 4 fold concentrated inhibitor in 4% DMSO in H2O to each well except to C− and C+ wells • 3) Add 10 μl 4% DMSO in H2O to C− and C+ wells • 4) Add 10 μl 500 mM EDTA in H2O to − wells • 5) Add 10 μl 50 μCi/ml Adenosine 5′-[γ-^33P]triphosphate in H2O to each well • 6) Add 10 μl 4 fold concentrated kinase in Reaction Buffer to each well • 7) Incubate 1 hr at room temperature • 8) Add 10 μl 50 mM EDTA in H2O to each well except to C− wells • 9) Prepare MAPH plates by adding 200 μl 0.75% H3PO4 to each well • 10) Exhaust 0.75% H3PO4 using Millipore vacuum station • 11) Add 60 μl 0.75% H3PO4 to each well of MAPH Filter Plate • 12) Transfer 30 μl sample per well from Assay Plate to corresponding well of MAPH Filter Plate • 13) Incubate 30 min at room temperature • 14) Wash each well of MAPH Filter Plates 3× with 200 μl 0.75% H3PO4 using Millipore vacuum station. • 15) Add 20 μl Scintillation Liquid to each well of MAPH Filter Plate • 16) Seal MAPH Filter Plate • 17) Store MAPH Filter Plate 30 min in darkness • 18) Quantify radioactivity
(§4) The activity of these protein kinases is depicted as % inhibition in the presence of 10 μM of compound in comparison to DMSO (0% inhibition).

HCMV strain AD169 = test: HCMV replication assay in HFF cells (EGFP); format: cell-based; details: strain AD 169 in HFF cells
Protocol: Human foreskin fibroblasts (HFF) cell culture were grown in DMEM containing 10% FCS. For HCMV-replication assays, HFF cells were infected with HCMV strain AD169 producing EGFP (HCMV AD169-GFP; 27). 1 h post infection, medium was changed with medium containing the indicated compound concentration (0.3 μM, 1 μM and 3 μM, respectively) After incubation of 7 days cells were lysed (in 25 mM Tris, pH 7.5, 2 mM DTT, 1% Triton X-100 and 10% glycerol) and analysed for EGFP content in a Wallac Victor fluorescence detector.

GSK-3β = GSK-3β (Homo sapiens, UniProt P49841); test: General kinase assay, selectivity panel: GSK-3β; format: biochemical; details: 10 μM of compound, in comparison to DMSO (0% inhibition)
Method in brief: as §1

[2] = test system: NFκB-dependent transcriptional activity; test: NFκB-dependent transcriptional activity (NIH 3T3 75E 11/300D8 cell line); format: cell-based
From the text: NFκB-dependent Transcriptional Activity:
The used NIH 3T3 75E 11/300D8 cell line is described elsewhere (J. Eickhoff et al., Journal of Biological Chemistry, 2004, 279(10), 9642-9652).
It is known, that CDK9 regulates the NFκB-dependent transitional activity. With Compound 4, Compound 7 and Compound 30 studies were done, to evaluate their effect on NFκB-dependent transcriptional activity.

c-Kit = c-Kit (Homo sapiens, UniProt P10721); test: General kinase assay, selectivity panel: c-Kit; format: biochemical; details: 10 μM of compound, in comparison to DMSO (0% inhibition)
Method in brief: as §1

CDK1 = CDK1 (Homo sapiens, UniProt P06493); test: General kinase assay, selectivity panel: CDK1; format: biochemical; details: 10 μM of compound, in comparison to DMSO (0% inhibition)
Method in brief: as §1

PDGFR = test: General kinase assay, selectivity panel: PDGFR; format: biochemical; details: 10 μM of compound, in comparison to DMSO (0% inhibition)
Method in brief: as §1

HBV = HBV replication assay in HepG2-2.2.15 cells; format: cell-based
Protocol: To test anti—HBV-activity of compounds the HBV-producing cell line HepG2-2.2.15 (M. A. Sells, PNAS 1987, 84, 1005-1009) was used. 1.0×10^4 cells were seeded in 96-well microtiter plates in DMEM medium supplemented with 10% FCS. After incubation at 37° C. in 5% CO2 atmosphere for 24 hours the medium was replaced with fresh medium containing the appropriately diluted compound. 3 days later medium was replaced by freshly prepared inhibitor-containing medium and the cells were incubated for further 3 days. Subsequently 200 μl lysis buffer (50 mM Tris-Cl 7.5; 1 mM EDTA 8.0; 0.5% NP40) per well was added. To remove cell debris and […], lysate was centrifuged (15000 rpm, 10 min, 4° C.). Cellular and viral RNA was removed by addition of 2 μl of RNase. 100 μl of the samples were spotted onto an uncharged nylon membrane pre-wetted with PBS (phosphate-buffered saline) using a 96 well-blotting chamber (MINIfold Dot-Blot, Schleicher&Schüll). After further washing with 200 μl PBS per well the membrane was treated twice with 0.5 M NaOH, 1.5 M NaCl (2 min) and 4 times with 0.5 M Tris 7.5, 3 M NaCl (1 min). The nucleic acids were fixed by UV-treatment and used for hybridisabon with a radioactive HBV-fragment prepared from the overgenome-length HBV-plasmid pT-HBV1.3 (L. G. Guidotti et al., Journal of Virology 1995., 69(10), 6158-6169).
The fixed membrane was pre-hybridized in a standard hybridisation buffer (50% formamide, 5×SSPE, 10×Denhards, 1% SDS, 100 μg/ml salmon sperm DNA) for at least 3 hours at 42° C. and hybridised overnight against the labelled HBV-fragment. The preparation of the HBV-fragment with the “Random primers DNA labelling system” (Invitrogen) was done according to the manufacturer's instructions. Hybridized filter were washed at room temperature with 2×SSC, at 62° C. with 2×SSC, 0.5% SDS and at 62° C. with 0.5×SSC, 0.5% SDS. Each washing step was carried out twice. The intensity of the HBV-DNA was quantified using a phosphoimager (Fuji). […] Absorbance was monitored at 570 nm and 600 nm wavelength.

cMet = cMet (Homo sapiens, UniProt P08581); test: General kinase assay, selectivity panel: cMet; format: biochemical; details: 10 μM of compound, in comparison to DMSO (0% inhibition)
Protocol: as §2, §3, §4

RSK1 = RSK1 (Homo sapiens, UniProt Q15418); test: General kinase assay, selectivity panel: RSK1; format: biochemical; details: 10 μM of compound, in comparison to DMSO (0% inhibition)
Protocol: as §2, §3, §4

Chain of EGFR (P00533 25-1210, species assumed): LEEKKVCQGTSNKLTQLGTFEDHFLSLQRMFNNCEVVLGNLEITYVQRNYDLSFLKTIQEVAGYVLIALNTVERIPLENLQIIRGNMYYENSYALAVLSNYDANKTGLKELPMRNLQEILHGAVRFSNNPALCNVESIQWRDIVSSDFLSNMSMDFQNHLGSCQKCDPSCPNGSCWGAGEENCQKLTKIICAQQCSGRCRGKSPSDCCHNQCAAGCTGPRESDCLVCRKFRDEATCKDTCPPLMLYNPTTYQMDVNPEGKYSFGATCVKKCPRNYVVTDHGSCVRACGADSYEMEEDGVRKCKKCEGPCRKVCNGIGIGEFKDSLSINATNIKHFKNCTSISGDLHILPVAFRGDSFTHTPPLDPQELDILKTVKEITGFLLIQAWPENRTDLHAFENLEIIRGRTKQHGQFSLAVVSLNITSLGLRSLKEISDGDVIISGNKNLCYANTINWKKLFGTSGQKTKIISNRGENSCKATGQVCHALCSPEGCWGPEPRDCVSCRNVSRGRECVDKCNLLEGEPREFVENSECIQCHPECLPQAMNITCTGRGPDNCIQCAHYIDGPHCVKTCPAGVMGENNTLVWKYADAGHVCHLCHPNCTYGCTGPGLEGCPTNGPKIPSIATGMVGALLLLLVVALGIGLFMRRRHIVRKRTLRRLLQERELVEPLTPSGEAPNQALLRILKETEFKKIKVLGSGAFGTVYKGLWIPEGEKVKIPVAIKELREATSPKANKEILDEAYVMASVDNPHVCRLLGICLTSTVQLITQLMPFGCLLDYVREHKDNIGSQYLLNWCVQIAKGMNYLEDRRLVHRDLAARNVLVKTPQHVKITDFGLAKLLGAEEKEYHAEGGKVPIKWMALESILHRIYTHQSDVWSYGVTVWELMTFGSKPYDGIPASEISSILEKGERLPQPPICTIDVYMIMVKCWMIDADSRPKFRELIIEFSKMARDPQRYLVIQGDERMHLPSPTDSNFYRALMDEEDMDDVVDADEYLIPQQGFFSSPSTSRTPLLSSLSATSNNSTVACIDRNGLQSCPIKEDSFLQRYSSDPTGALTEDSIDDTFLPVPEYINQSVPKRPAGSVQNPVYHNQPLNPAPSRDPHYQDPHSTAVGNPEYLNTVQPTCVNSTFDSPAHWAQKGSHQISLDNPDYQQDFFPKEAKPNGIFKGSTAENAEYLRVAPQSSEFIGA
Chain of GSK-3β (P49841 whole entry, species assumed): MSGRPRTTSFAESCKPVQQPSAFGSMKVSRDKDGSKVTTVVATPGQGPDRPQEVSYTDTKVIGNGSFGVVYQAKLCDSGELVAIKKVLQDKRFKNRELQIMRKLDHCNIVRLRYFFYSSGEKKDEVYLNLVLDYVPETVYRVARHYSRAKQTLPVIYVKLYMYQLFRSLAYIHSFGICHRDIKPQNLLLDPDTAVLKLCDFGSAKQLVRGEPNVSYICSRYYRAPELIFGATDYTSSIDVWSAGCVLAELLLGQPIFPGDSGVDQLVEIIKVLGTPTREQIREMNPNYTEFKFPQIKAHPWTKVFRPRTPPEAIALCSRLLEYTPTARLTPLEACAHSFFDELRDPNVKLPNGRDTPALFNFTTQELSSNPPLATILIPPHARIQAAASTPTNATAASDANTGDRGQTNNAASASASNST
Chain of p56 Lck (P06239 whole entry): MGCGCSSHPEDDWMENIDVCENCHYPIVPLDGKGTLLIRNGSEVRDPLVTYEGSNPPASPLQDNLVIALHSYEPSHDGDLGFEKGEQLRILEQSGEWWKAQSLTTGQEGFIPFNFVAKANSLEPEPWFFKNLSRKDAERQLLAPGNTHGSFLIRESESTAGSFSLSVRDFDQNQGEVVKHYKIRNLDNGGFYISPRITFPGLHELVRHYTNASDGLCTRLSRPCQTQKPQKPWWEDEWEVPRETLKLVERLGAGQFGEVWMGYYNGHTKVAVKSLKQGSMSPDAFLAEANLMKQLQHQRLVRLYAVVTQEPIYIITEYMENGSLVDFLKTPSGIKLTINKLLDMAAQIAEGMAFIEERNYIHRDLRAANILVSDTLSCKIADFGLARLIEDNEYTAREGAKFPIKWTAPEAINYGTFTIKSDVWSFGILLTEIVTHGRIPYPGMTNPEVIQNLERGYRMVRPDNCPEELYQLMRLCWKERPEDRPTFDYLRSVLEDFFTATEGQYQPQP
Chain of CDK1 (P06493 whole entry, species assumed): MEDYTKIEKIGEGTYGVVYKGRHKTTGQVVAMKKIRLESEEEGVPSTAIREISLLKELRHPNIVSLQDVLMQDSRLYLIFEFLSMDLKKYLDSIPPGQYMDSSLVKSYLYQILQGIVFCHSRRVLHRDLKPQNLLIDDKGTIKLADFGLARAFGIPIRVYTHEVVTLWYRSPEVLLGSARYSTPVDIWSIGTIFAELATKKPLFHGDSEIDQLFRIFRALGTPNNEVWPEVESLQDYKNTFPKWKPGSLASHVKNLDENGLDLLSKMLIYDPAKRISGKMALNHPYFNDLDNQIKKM
Chain of CDK1 (P14635 whole entry partner, species assumed): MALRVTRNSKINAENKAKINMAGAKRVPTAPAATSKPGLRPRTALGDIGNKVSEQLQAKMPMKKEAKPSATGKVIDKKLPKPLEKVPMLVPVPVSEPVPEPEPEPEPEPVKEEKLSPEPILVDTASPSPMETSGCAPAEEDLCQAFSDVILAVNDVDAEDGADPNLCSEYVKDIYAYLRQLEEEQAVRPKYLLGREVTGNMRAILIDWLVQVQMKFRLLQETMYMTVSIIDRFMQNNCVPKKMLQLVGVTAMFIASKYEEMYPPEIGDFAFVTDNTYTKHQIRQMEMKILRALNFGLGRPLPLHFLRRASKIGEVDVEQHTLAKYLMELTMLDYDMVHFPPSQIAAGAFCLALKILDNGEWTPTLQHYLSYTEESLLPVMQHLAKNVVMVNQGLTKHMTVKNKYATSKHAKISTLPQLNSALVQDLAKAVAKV
Chain of c-Kit (P10721 26-976): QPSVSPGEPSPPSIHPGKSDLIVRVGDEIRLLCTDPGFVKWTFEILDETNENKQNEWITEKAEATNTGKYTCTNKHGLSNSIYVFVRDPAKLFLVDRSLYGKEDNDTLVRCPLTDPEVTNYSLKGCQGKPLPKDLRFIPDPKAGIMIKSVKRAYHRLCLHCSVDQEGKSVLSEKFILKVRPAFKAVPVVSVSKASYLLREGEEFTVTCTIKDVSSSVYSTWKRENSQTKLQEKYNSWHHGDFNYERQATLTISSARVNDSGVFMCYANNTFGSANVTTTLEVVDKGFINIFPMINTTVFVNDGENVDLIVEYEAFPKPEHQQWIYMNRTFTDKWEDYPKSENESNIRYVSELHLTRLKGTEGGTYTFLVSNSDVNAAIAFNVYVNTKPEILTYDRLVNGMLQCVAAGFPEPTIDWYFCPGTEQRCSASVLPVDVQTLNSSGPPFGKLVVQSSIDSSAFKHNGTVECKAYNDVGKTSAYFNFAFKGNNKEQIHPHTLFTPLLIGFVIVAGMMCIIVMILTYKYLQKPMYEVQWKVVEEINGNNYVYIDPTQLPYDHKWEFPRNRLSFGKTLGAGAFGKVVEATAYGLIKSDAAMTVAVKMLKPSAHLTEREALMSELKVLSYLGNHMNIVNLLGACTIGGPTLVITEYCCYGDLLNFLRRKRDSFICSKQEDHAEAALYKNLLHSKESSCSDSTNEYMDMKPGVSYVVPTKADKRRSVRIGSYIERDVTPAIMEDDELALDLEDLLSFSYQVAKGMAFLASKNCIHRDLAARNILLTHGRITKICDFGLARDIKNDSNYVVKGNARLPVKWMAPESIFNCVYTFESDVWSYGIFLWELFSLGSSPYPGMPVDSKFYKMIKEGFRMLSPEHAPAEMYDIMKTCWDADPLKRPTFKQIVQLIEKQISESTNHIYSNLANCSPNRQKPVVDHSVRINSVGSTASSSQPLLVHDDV
Chain of RSK1 (Q15418 whole entry, species assumed): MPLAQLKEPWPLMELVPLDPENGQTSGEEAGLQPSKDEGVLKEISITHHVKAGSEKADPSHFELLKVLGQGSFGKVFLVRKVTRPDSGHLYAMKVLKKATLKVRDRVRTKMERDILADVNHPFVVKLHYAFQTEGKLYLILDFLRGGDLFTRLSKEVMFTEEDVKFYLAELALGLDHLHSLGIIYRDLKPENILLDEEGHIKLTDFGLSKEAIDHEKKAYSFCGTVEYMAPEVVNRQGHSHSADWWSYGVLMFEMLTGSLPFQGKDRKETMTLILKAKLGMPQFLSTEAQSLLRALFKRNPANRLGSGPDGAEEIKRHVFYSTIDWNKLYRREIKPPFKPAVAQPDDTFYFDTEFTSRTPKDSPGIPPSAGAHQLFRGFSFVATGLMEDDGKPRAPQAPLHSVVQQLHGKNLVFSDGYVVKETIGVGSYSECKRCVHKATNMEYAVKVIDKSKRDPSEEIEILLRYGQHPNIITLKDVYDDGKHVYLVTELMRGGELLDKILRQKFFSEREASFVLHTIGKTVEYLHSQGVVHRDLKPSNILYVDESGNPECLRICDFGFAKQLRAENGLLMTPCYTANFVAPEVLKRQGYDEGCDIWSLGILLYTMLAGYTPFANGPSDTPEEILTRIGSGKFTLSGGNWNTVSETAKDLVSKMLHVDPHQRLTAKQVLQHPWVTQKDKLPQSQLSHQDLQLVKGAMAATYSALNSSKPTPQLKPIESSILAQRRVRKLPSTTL

COC(=O)CN(c1ccc(Nc2cc(-c3ccccc3OC)ncn2)cc1)S(=O)(=O)c1ccc(C)cc1 [Compound 28]
CDK2 inhibition (in words) (CDK2/CyclinA): tendency to inhibit potently
effect on growth of PM1 cells (in words) (PM1 cells): affect severely

COc1ccccc1-c1cc(Nc2ccc(NC(=O)[C@@H]3CCCCN3)cc2)ncn1 [Compound 30]
molecular weight of RNA polymerase II [1]: reduction
serine 2 phosphorylation of RNA polymerase II ([1]; anti-SER2 (H5)): decreased
serine 5 phosphorylation of RNA polymerase II ([1]; anti-SER5 (H14)): did not show any differences
Abl (% inhibition) (Abl): b (inhibition between 80 and 50%: b)
EGFR (% inhibition) (EGFR): a (inhibition greater than 80%: a)
p56 Lck (% inhibition) (p56 Lck): b (inhibition between 80 and 50%: b)
c-Src (% inhibition) (c-Src): b (inhibition between 80 and 50%: b)
HCMV replication (in words) (HCMV strain AD169): showed inhibition
GSK-3β (% inhibition) (GSK-3β): c (inhibition between 50 and 30%: c)
TNF-α stimulated NFκB-dependent promoter activity ([2]; 1 μM final concentration, TNF-α stimulated): able, to affect
NFκB-dependent promoter activity under non-stimulated conditions ([2]; non-stimulated conditions): no inhibition was observed
EC50 ([2]; titration): ~1000 nM
c-Kit (% inhibition) (c-Kit): b (inhibition between 80 and 50%: b)
CDK1 (% inhibition) (CDK1): a (inhibition greater than 80%: a)
PDGFR (% inhibition) (PDGFR): c (inhibition between 50 and 30%: c)
HBV replication (in words) (HBV): inactive
cMet (% inhibition) (cMet): c (inhibition between 50 and 30%: c)

COc1ccccc1-c1cc(Nc2ccc(N3CCCC3=O)cc2)ncn1 [Compound 9]
RSK1 (% inhibition) (RSK1): c (inhibition between 50 and 30%: c)
EGFR (% inhibition) (EGFR): b (inhibition between 80 and 50%: b)
p56 Lck (% inhibition) (p56 Lck): b (inhibition between 80 and 50%: b)
GSK-3β (% inhibition) (GSK-3β): b (inhibition between 80 and 50%: b)
CDK2 inhibition (in words) (CDK2/CyclinA): tendency to inhibit potently
c-Kit (% inhibition) (c-Kit): c (inhibition between 50 and 30%: c)
CDK1 (% inhibition) (CDK1): a (inhibition greater than 80%: a)
PDGFR (% inhibition) (PDGFR): c (inhibition between 50 and 30%: c)
effect on growth of PM1 cells (in words) (PM1 cells): affect severely
